From patent US10448639B2, “Fungicidal pyrazoles” (FMC CORPORATION, priority 2009, dated 2019)
Like-named read-outs stand apart in the source and are kept apart here.

Legend:
Rhizoctonia solani = assay: Test E: turf brown patch, preventive spray on creeping bent grass (Agrostis sp.) seedlings, disease rating; type: in vivo; conditions: 100 = 100% disease control; for Test E disease control rating: 0 = no disease control relative to controls
Description: A dash (-) indicates no test results.

[1] = system: Erysiphe graminis f sp. tritici; assay: Test J: wheat powdery mildew, preventive spray on wheat seedlings, visual disease rating; conditions: for Test J rating (% disease control) / Test J disease control rating: wheat powdery mildew, 100 = 100% disease control; for Test J disease control rating: sprayed the day before inoculation, 0 = no disease control relative to controls
[2] = system: Puccinia recondita f. sp. tritici; assay: Test I: wheat leaf rust, preventive spray on wheat seedlings, visual disease rating; conditions: for Test I rating (% disease control) / Test I disease control rating: wheat leaf rust, 100 = 100% disease control; for Test I disease control rating: sprayed the day before inoculation, 0 = no disease control relative to controls
Septoria nodorum = assay: Test F: Septoria glume blotch, preventive spray on wheat seedlings, visual disease rating; conditions: for Test F rating (% disease control) / Test F disease control rating: 100 = 100% disease control; for Test F disease control rating: 0 = no disease control relative to controls
Alternaria solani = assay: Test C: tomato early blight, preventive spray on tomato seedlings, visual disease rating; conditions: for Test C rating (% disease control) / Test C disease control rating: tomato early blight, 100 = 100% disease control; for Test C disease control rating: 0 = no disease control relative to controls
Botrytis cinerea = assay: Test B: tomato Botrytis, preventive spray on tomato seedlings, visual disease rating; conditions: for Test B rating (% disease control) / Test B disease control rating: tomato Botrytis, 100 = 100% disease control; for Test B disease control rating: 0 = no disease control relative to controls
Phytophthora infestans = type: in vivo; conditions: tomato late blight, 100 = 100% disease control
Plasmopara viticola = assay: Test A: grape downy mildew, curative spray on inoculated grape seedlings, visual disease rating; type: in vivo; conditions: 100 = 100% disease control; for Test A rating (% disease control): 0 = no control relative to controls
Description: Upon removal, visual disease ratings were made. […] A dash (-) indicates no test results.

Septoria tritici = assay: Test G: wheat leaf blotch, preventive spray on wheat seedlings, visual disease rating; conditions: for Test G rating (% disease control) / Test G disease control rating: wheat leaf blotch, 100 = 100% disease control; for Test G disease control rating: sprayed the day before inoculation, 0 = no disease control relative to controls
Description: General protocol for preparing test suspensions for Tests A-J: the test compounds were first dissolved in acetone in an amount equal to 3% of the final volume and then suspended at the desired concentration (in ppm) in acetone and purified water (50/50 mix by volume) containing 250 ppm of the surfactant Trem® 014 (polyhydric alcohol esters). The resulting test suspensions were then used in Tests A-J. Spraying a 200 ppm test suspension to the point of run-off on the test plants was the equivalent of a rate of 500 g/ha. Unless otherwise indicated, the rating values indicate a 200 ppm test suspension was used. (An asterisk “*” next to the rating value indicates a 40 ppm test suspension was used.)
The test suspension was sprayed to the point of run-off on wheat seedlings. The following day the seedlings were inoculated with a spore suspension of Septoria tritici (the causal agent of wheat leaf blotch) and incubated in saturated atmosphere at 24° C. for 48 h. and then the seedlings were moved to a growth chamber at 20° C. for 19 additional days, after which time visual disease ratings were made.

[3] = system: Puccinia recondita f. sp. tritici; assay: Test H: wheat leaf rust, curative spray on inoculated wheat seedlings, visual disease rating; conditions: wheat leaf rust, curative; 100 = 100% disease control, 0 = no control relative to controls
[4] = preventive spray, 0 = no control
[5] = Septoria glume blotch on wheat, preventive spray, 0 = no control
[6] = 0 = no disease control relative to controls
[7] = 0 = no control relative to controls
[8] = preventive, 0 = no control relative to controls
[9] = Septoria glume blotch, 0 = no control relative to controls

Compound	Test E rating (% disease control) (Rhizoctonia solani; [4])	Test J rating (% disease control) [1, 4]	Test I rating (% disease control) [2, 4]	Test F rating (% disease control) (Septoria nodorum; [5])	Test C rating (% disease control) (Alternaria solani; [4])	Test B rating (% disease control) (Botrytis cinerea; [4])	Test D rating (% disease control) (Phytophthora infestans; [4])	Test A rating (% disease control) (Plasmopara viticola; curative spray)	Test G rating (% disease control) (Septoria tritici; [4])	further results
Cc1nn(C)c(Nc2cccc(F)c2)c1-c1ccc(F)cc1Cl [compound 8]	99%	99%	97%	0%	54%	99%	0%	55%	100%	–
Cc1nn(C)c(Nc2cc(F)cc(F)c2)c1-c1ccc(F)cc1Cl [compound 9]	55%	97%	98%	0%	0%	99%	0%	–	100%	–
Cc1nn(C)c(Nc2ccc(F)cc2)c1-c1ccc(F)cc1Cl [compound 11]	99%	100%	99%	0%	99%	99%	0%	–	100%	–
Cc1nn(C)c(N(C)c2cccc(Cl)c2)c1-c1ccc(F)cc1F [compound 3]	0%	99%	0%	0%	25%	0%	9%	6%	13%	–
COc1cc(Nc2c(-c3c(F)cccc3F)c(C)nn2C)cc(OC)c1 [compound 37]	0%	0%	0%	0%	0%	0%	0%	0%	3%	–
Cc1nn(C)c(Nc2ccc(F)c(Cl)c2)c1-c1ccc(F)cc1Cl [compound 7]	63%	92%	74%	0%	0%	99%	0%	29%	100%	–
Cc1nn(C)c(N(C)c2cc(F)cc(F)c2)c1-c1ccc(Cl)cc1 [compound 6]	0%	93%	0%	0%	23%	10%	0%	65%	0%	–
Cc1nn(C)c(Nc2cccc(Cl)c2)c1-c1ccc(F)cc1F [Compound 1, N-(3-Chlorophenyl)-4-(2,4-difluorophenyl)-1,3-dimethyl-1H-pyrazol-5-amine]	47%	–	–	–	–	–	0%	0%	–	pest or weed control at 200 µg/mL ([1]; Blumeria graminis, in Triticum aestivum, 192 h, read-out: Test J rating (% disease control)): 98%; pest or weed control at 200 µg/mL ([2]; 192 h, read-out: Test I rating (% disease control)): 0%; pest or weed control at 200 µg/mL (Septoria nodorum; Parastagonospora nodorum, in Triticum aestivum, 192 h, read-out: Test F rating (% disease control)): 0%; pest or weed control at 200 µg/mL (Alternaria solani; Alternaria solani, in Solanum lycopersicum, 168 h, read-out: Test C rating (% disease control)): 0%; pest or weed control at 200 µg/mL (Botrytis cinerea; Botrytis cinerea, in Solanum lycopersicum, 120 h, read-out: Test B rating (% disease control)): 99%; pest or weed control at 200 µg/mL (Septoria tritici; Zymoseptoria tritici, in Triticum aestivum, 504 h, read-out: Test G rating (% disease control)): 99%
Cc1nn(C)c(N(CC#N)c2c(F)cc(F)cc2F)c1-c1ccc(F)cc1Cl [compound 326]	–	–	–	–	–	–	–	–	–	Test E disease control rating (Rhizoctonia solani): 99%; Test J disease control rating [1]: 94%; Test I disease control rating [2]: 99%; Test F disease control rating (Septoria nodorum; Septoria glume blotch on wheat): 73%; Test C disease control rating (Alternaria solani): 99%; Test B disease control rating (Botrytis cinerea): 99%; Test D disease control rating (Phytophthora infestans; [6]): 0%; Test A disease control rating (Plasmopara viticola; [6]): 8%; Test G disease control rating (Septoria tritici): 100%
COCN(c1c(F)cc(F)cc1F)c1c(-c2ccc(F)cc2Cl)c(C)nn1C [compound 309]	–	–	–	–	–	–	–	–	–	Test E disease control rating (Rhizoctonia solani): 92%; Test J disease control rating [1]: 99%; Test I disease control rating [2]: 0%; Test F disease control rating (Septoria nodorum; Septoria glume blotch on wheat): 60%; Test C disease control rating (Alternaria solani): 61%; Test B disease control rating (Botrytis cinerea): 97%; Test G disease control rating (Septoria tritici): 100%
CCN(c1c(F)cc(F)cc1F)c1c(-c2ccc(F)cc2Cl)c(C)nn1C [compound 294]	–	–	–	–	–	–	–	–	–	Test E rating (% disease control) (Rhizoctonia solani; [7]): 80%; Test J rating (% disease control) [1, 7]: 84%; Test I rating (% disease control) [2, 8]: 0%; Test F rating (% disease control) (Septoria nodorum; [9]): 0%; Test C rating (% disease control) (Alternaria solani; [7]): 0%; Test B rating (% disease control) (Botrytis cinerea; [7]): 98%; Test D rating (% disease control) (Phytophthora infestans; [7]): 0%; Test A rating (% disease control) (Plasmopara viticola): 0%
COc1ccc(Nc2c(-c3ccc(F)cc3Cl)c(C)nn2C)cc1 [compound 288]	–	–	–	–	–	–	–	–	–	Test E rating (% disease control) (Rhizoctonia solani; [7]): 92%; Test J rating (% disease control) [1, 7]: 92%; Test I rating (% disease control) [2, 8]: 74%; Test F rating (% disease control) (Septoria nodorum; [9]): 0%; Test C rating (% disease control) (Alternaria solani; [7]): 52%; Test B rating (% disease control) (Botrytis cinerea; [7]): 99%; Test D rating (% disease control) (Phytophthora infestans; [7]): 0%; Test A rating (% disease control) (Plasmopara viticola): 9%
Cc1nn(C)c(Nc2ccccc2F)c1-c1ccc(F)cc1Cl [compound 12]	99%	100%	99%	0%	93%	99%	0%	–	100%	–
Cc1nn(C)c(Nc2ccc(F)cc2F)c1-c1ccc(F)cc1Cl [compound 13]	98%	99%	100%	64%	100%	99%	0%	–	100%	–
Cc1nn(C)c(N(C)c2c(F)cc(F)cc2F)c1-c1ccc(F)cc1Cl [compound 293]	–	–	–	–	–	–	–	–	–	Test E rating (% disease control) (Rhizoctonia solani; [7]): 99%; Test J rating (% disease control) [1, 7]: 99%; Test I rating (% disease control) [2, 8]: 94%; Test F rating (% disease control) (Septoria nodorum; [9]): 0%; Test C rating (% disease control) (Alternaria solani; [7]): 47%; Test B rating (% disease control) (Botrytis cinerea; [7]): 97%; Test D rating (% disease control) (Phytophthora infestans; [7]): 0%; Test A rating (% disease control) (Plasmopara viticola): 0%
Cc1nn(C)c(N(c2c(F)cc(F)cc2F)S(C)(=O)=O)c1-c1ccc(F)cc1Cl [compound 304]	–	–	–	–	–	–	–	–	–	Test E disease control rating (Rhizoctonia solani): 0%; Test J disease control rating [1]: 0%; Test I disease control rating [2]: 0%; Test F disease control rating (Septoria nodorum; Septoria glume blotch on wheat): 0%; Test C disease control rating (Alternaria solani): 0%; Test B disease control rating (Botrytis cinerea): 0%; Test G disease control rating (Septoria tritici): 16%
Cc1nn(C)c(Nc2cc(F)cc(F)c2F)c1-c1ccc(Cl)cc1 [compound 10]	0%	0%	0%	0%	0%	47%	0%	–	0%	–
Cc1nn(C)c(Oc2ncc(C(F)(F)F)cc2Cl)c1-c1ccc(F)cc1Br [compound 261]	–	–	–	–	–	–	–	–	–	Test J rating (% disease control) [1, 7]: 47%; Test H rating (% disease control) [3]: 0%; Test I rating (% disease control) [2, 8]: 0%; Test F rating (% disease control) (Septoria nodorum; [9]): 0%; Test C rating (% disease control) (Alternaria solani; [7]): 0%; Test B rating (% disease control) (Botrytis cinerea; [7]): 0%; Test G rating (% disease control) (Septoria tritici; [7]): 0%
